What all share (assay): growth of human tumour cells (NCI), 48 h
In assay [1] the test system is SN12C.
For assay [2], the system named is A549.
The subject of assay [3] is NCI/ADR-RES.
The subject of assay [4] is NCI-H23.
Assay [5] relates to HCC 2998.
For assay [6], the system named is NCI-H226.
The test system of assay [7] is HT-29.
Assay [8] deals with HOP-92.
For assay [9], the system named is SK-OV-3.
Assay [10] relates to NCI-H460.
For assay [11], the system named is SW-620.
Assay [12] has as its system OVCAR-3.
The test system of assay [13] is MDA-N.
The subject of assay [14] is COLO 205.
Assay [15] deals with 786-0.
Assay [16] relates to SF-295.
Assay [17] has as its system LOX IMVI.
Assay [18] has as its system HCT-15.
In assay [19] the test system is T47D.
For assay [20], the system named is SR.

This note sets out measurements from ChEMBL document CHEMBL1201862, “PubChem BioAssay data set” (2004).

Each structure is given as a SMILES string.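 The compound was tested at five concentrations on cells cultured in 96-well plates, with a 48-hour exposure period. GI50 is the concentration that inhibits growth by half.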 The source made the active and inactive calls. Cut-off read from the data, not from the text of the source: active = GI50 up to about 1.1 µM and inactive = higher. A value given as a limit tells only on which side of the number the result lay.

On to `CC1=C(C(=O)NNC(=O)c2ccccc2)CC(C(=O)NNC(=O)c2ccccc2)=C(C)N1`, for which the GI50 in assay [1], in assay [2], in assay [3], in assay [4], in assay [5] and in [6] was > 100 µM (inactive) throughout. For the same compound, the GI50 was > 100 µM (inactive) in [7]; > 100 µM (inactive) in assay [8]; > 100 µM (inactive) in [9]; 92.9 µM (inactive) in assay [10]; > 100 µM (inactive) in assay [11]; > 100 µM (inactive) in [12]. Moreover, the GI50 in [13] is > 100 µM (inactive); in assay [14], > 100 µM (inactive); in assay [15], > 100 µM (inactive); in assay [16], > 100 µM (inactive); in assay [17], > 100 µM (inactive); in assay [18], over 100 µM. The GI50 in assay [19] was > 100 µM (inactive).

With `O=C(c1ccccc1)C1C(C(=O)c2ccccc2)N1Cc1ccccc1` (centres undefined), the GI50 in [1] was 21.4 µM (inactive); in assay [2] it was 24.2 µM (inactive); in assay [3], 33.5 µM (inactive); in assay [4], 37.8 µM (inactive); in assay [5], 48.3 µM (inactive); in assay [6], 32.6 µM (inactive). Besides, the GI50 in assay [7] was 36.5 µM (inactive); in assay [8], 26 µM (inactive); in assay [9], 27.5 µM (inactive); in assay [10], 29.2 µM (inactive); in assay [11] it was 44.1 µM (inactive); in assay [12], 27.8 µM (inactive). Further, the GI50 in [13] is 13.5 µM (inactive); in [14] it was 24.3 µM (inactive); in [15], 34.8 µM (inactive); in assay [16] it was 39.7 µM (inactive); in assay [17], 31.2 µM (inactive); in assay [18], 57.3 µM. In addition, the GI50 in assay [19] was 11.6 µM (inactive).

Turning to `CCN(CC)C1Oc2cc3c(cc2C(c2cccc(OC)c2OC)C1C)OCO3` (centres undefined), the GI50 in assay [20] was 0.729 µM (active); in assay [1] it was 5.4 µM (inactive); in assay [2], 4.46 µM (inactive); in assay [4], 8.47 µM (inactive); in assay [5], 11.3 µM (inactive); in assay [6] it was 2.05 µM (inactive). For the same compound, the GI50 in assay [7] was 3.65 µM (inactive); in assay [9], 4.53 µM (inactive); in assay [10], 3.63 µM (inactive); in assay [11], 4.24 µM (inactive); in assay [12], 2.7 µM (inactive); in [13], 8.59 µM (inactive). The GI50 was 3.85 µM (inactive) in assay [14]; 4.16 µM (inactive) in assay [15]; 3.16 µM (inactive) in assay [16]; 3.66 µM (inactive) in assay [17]; 3.93 µM in assay [18]; 3.42 µM (inactive) in assay [19].

`O=C(O)CC1OCC=C2CN3CCC45C6=CC(=O)C(O)=C([N+](=O)[O-])C6=NC4C1C2CC35` (centres undefined): the GI50 in assay [1], in assay [2], in assay [3], in [4], in [5] and in assay [6] was > 100 µM (inactive) throughout. For the same compound, the GI50 in [7] was > 100 µM (inactive); in [8], > 100 µM (inactive); in assay [9], > 100 µM (inactive); in assay [10], > 100 µM (inactive); in assay [11], 47 µM (inactive); in assay [12] it was > 100 µM (inactive). The GI50 in assay [13] was 44.7 µM (inactive); in assay [14], > 100 µM (inactive); in assay [15] it was > 100 µM (inactive); in assay [16] it was > 100 µM (inactive); in [17], 40.8 µM (inactive); in assay [18], over 100 µM. The GI50 in assay [19] was > 100 µM (inactive).

In the case of `Cc1ccnc2nc(-c3cccc4ccccc34)cc(O)c12`, the GI50 in assay [20] was 0.0007 µM (active); in assay [1], 0.127 µM (active); in assay [2] it was 0.019 µM (active); in assay [3], 0.00237 µM (active); in assay [4], 0.0783 µM (active); in assay [5], 0.0573 µM (active). In addition, the GI50 was 0.0336 µM (active) in assay [6]; 0.00296 µM (active) in assay [7]; 0.00123 µM (active) in assay [8]; 0.00471 µM (active) in assay [9]; 0.0121 µM (active) in assay [10]; 0.00379 µM (active) in assay [11]. For the same compound, the GI50 in assay [12] was 0.00258 µM (active); in [13] it was 0.000104 µM (active); in [14], 0.0177 µM (active); in assay [15] it was 0.011 µM (active); in assay [16], 0.0132 µM (active); in assay [17], 0.00713 µM (active). For the same compound, the GI50 in [18] is 0.00434 µM.

Take `CC(NC(=O)c1ccc(Cl)c(Cl)c1)c1ccc(-c2ccccc2)cc1` (centres undefined): the GI50 in [20] is 15.2 µM (inactive); in assay [1], 52.2 µM (inactive); in [2] it was 16.4 µM (inactive); in [3], 54.8 µM (inactive); in [4] it was 48.3 µM (inactive); in assay [5], 43.1 µM (inactive). Besides, the GI50 in [6] was 31.3 µM (inactive); in assay [7], 71.6 µM (inactive); in assay [8] it was 25.5 µM (inactive); in assay [9], 27.5 µM (inactive); in assay [10], 47.4 µM (inactive); in assay [11], 79.4 µM (inactive). Besides, the GI50 is 20.8 µM (inactive) in assay [12]; > 100 µM (inactive) in assay [13]; > 100 µM (inactive) in assay [14]; 22.5 µM (inactive) in assay [15]; 29.9 µM (inactive) in assay [16]; 38.3 µM (inactive) in assay [17]. For the same compound, the GI50 in assay [18] was over 100 µM.

In the case of `COc1cc(NC(C)c2ccc3c(c2)OCCO3)cc(OC)c1OC` (centres undefined), the GI50 in [20] is 10.4 µM (inactive); in [1] it was 63.2 µM (inactive); in assay [2] it was 45 µM (inactive); in assay [3], 22.9 µM (inactive); in [4], 18.9 µM (inactive); in assay [5], 23 µM (inactive). For the same compound, the GI50 was 24.3 µM (inactive) in assay [6]; 33.7 µM (inactive) in assay [7]; > 100 µM (inactive) in [8]; 31.6 µM (inactive) in assay [10]; 33.9 µM (inactive) in [11]; 32.1 µM (inactive) in assay [12]. Further, the GI50 in assay [13] was 5.4 µM (inactive); in [14], 31.3 µM (inactive); in assay [15], 34.4 µM (inactive); in assay [16] it was 23.9 µM (inactive); in assay [17] it was 46.2 µM (inactive); in [18], 24.4 µM.

For the compound `O=C(O)CC(Cc1ccccc1)C(=O)O` (centres undefined), the GI50 is 37.2 µM (inactive) in assay [1]; > 100 µM (inactive) in assay [2]; > 100 µM (inactive) in assay [3]; > 100 µM (inactive) in [4]; > 100 µM (inactive) in [5]; 50.4 µM (inactive) in assay [6]. Also, the GI50 in assay [7] was > 100 µM (inactive); in assay [9], > 100 µM (inactive); in assay [10], > 100 µM (inactive); in [11] it was > 100 µM (inactive); in [12], > 100 µM (inactive); in [13] it was 56.5 µM (inactive). For the same compound, the GI50 in [14] is > 100 µM (inactive); in [15], 76.2 µM (inactive); in assay [16], > 100 µM (inactive); in assay [17] it was > 100 µM (inactive); in [18], over 100 µM; in assay [19] it was > 100 µM (inactive).
